# Laboratory results as given in patent US20240148821A1, “PHARMACEUTICAL USE OF CYCLIC PEPTIDE COMPOUND” (CHUGAI SEIYAKU KABUSHIKI KAISHA, priority 2021, published 2024).
# Numbered stars: 1 amine (or outer) side, 2 acyl side, 3 side chain; on linkers, the order of the positions; unused ones are H or OH. Bridge positions count the residues as written; N and C are the ends. Square brackets hold non-standard residues; d marks the D form. Peptide text beside a SMILES is read from it. * marks the point of attachment. hPhe(3,5-F2-4-CF3) = N[C@@H](CCc1cc(F)c(C(F)(F)F)c(F)c1)C(=O)O; hPhe(3-Cl-4-CF3) = N[C@@H](CCc1ccc(C(F)(F)F)c(Cl)c1)C(=O)O; hPhe(3-F,4-CF3) = N[C@@H](CCc1ccc(C(F)(F)F)c(F)c1)C(=O)O; NEtPhe(4-CF3) = CCN[C@@H](Cc1ccc(C(F)(F)F)cc1)C(=O)O; NMePhe(4-CF3) = CN[C@@H](Cc1ccc(C(F)(F)F)cc1)C(=O)O; 3Oxa8azabicyclo(3.2.1)octane = C1CC2COCC1N2*; NMeAbu(4,4,4-F3) = CN[C@@H](CC(F)(F)F)C(=O)O; NMePhe(4-Cl) = CN[C@@H](Cc1ccc(Cl)cc1)C(=O)O; NMePhe(4-Me) = CN[C@@H](Cc1ccc(C)cc1)C(=O)O; NMedβ3hAla = C[C@H](CC(=O)[*:2])N(C)[*:1]; NMeGly(cPent) = CN[C@H](C(=O)O)C1CCCC1; NMeCha = CN[C@@H](CC1CCCCC1)C(=O)O; Hyp = O=C(O)[C@@H]1C[C@@H](O)CN1; NEtLeu = CCN[C@@H](CC(C)C)C(=O)O; NMeI = CC[C@H](C)[C@H](NC)C(=O)O; NMeD = CN[C@@H](CC(=O)O)C(=O)O; AllylGly = C=CC[C@H](N)C(=O)O; NMeL = CN[C@@H](CC(C)C)C(=O)O; Chg = N[C@H](C(=O)O)C1CCCCC1; NEtAla = CCN[C@@H](C)C(=O)O; NMeV = CN[C@H](C(=O)O)C(C)C; NMeS = CN[C@@H](CO)C(=O)O; Morpholide = C1CN(*)CCO1; NMeA = CN[C@@H](C)C(=O)O; NMeAib = CNC(C)(C)C(=O)O; Piperidide = C1CCN(*)CC1; Pyrrolidide = C1CCN(*)C1; Ac5c = NC1(C(=O)O)CCCC1; Aze = O=C(O)[C@@H]1CCN1; Ac4c = NC1(C(=O)O)CCC1; Sar = CNCC(=O)O; Propyl = CCC*
# Legend:
# [1] = target: protein-protein interaction between Kras and SOS1 (biotin-tagged human Kras loaded with GDP, His-tagged human SOS1) (Homo sapiens (Human), UniProt P01116, G12D); assay: Protein-protein interaction inhibition between Kras and SOS1 (KrasG12D-SOS PPI) using AlphaScreen; format: biochemical; settings: AlphaScreen; biotin-tagged human Kras loaded with GDP, His-tagged human SOS1; read-out: KRAS G12D-SOS PPI IC50;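 further: kras produced in E. coli, Ni-coupled donor beads and streptavidin acceptor beads, excitation 680 nm with emission detected at 520–620 nm via singlet oxygen transfer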
# [2] = system: Human pancreatic cancer cell line AsPC-1 (G12D mutation Kras); assay: AsPC-1 cell growth inhibition (AsPC-1 CGI); format: cell-based; settings: read-out: AsPC-1 cell growth inhibition, 50% growth inhibitory concentration (IC50 value); 96 hours, CellTiter-Glo, values classified in ranges
Structure (SMILES),IC50 [1] [nM],IC50 [2] [nM]
"CCO[C@@H]1C[C@H]2C(=O)NC3(CCC3)C(=O)N(C)[C@@H]([C@@H](C)CC)C(=O)N(C)[C@H](C)CC(=O)N(C)[C@@H](CC(C)C)C(=O)N[C@@H]([C@@H](C)CC)C(=O)N(C)[C@@H](C)C(=O)N3CC[C@H]3C(=O)N(CC)[C@@H](Cc3ccc(C(F)(F)F)cc3)C(=O)N(C)CC(=O)N[C@@H](CCc3cc(F)c(C(F)(F)F)c(F)c3)C(=O)N2C1 [Compound 731] (cyclo([Ac4c][NMeI][NMedβ3hAla][NMeL]I[NMeA][Aze][NEtPhe(4-CF3)][Sar][hPhe(3,5-F2-4-CF3)][Hyp](Et)))",3.5,≤ 20
"CC(C)C[C@@H]1NC(=O)C(C)(C)N(C)C(=O)[C@H](CC(C)C)NC(=O)[C@H](CCc2ccc(C(F)(F)F)c(F)c2)NC(=O)CN(C)C(=O)[C@H](Cc2ccc(Cl)cc2)N(C)C(=O)CN(C)C(=O)CN(C)C(=O)[C@H](C2CCCCC2)NC(=O)[C@H](CC(C)C)N(C)C(=O)C[C@@H](C)N(C)C1=O [Compound 1133] (cyclo([Chg][Sar][Sar][NMePhe(4-Cl)][Sar][hPhe(3-F,4-CF3)]L[NMeAib]L[NMedβ3hAla][NMeL]))",56,> 500
CC[C@H](C)[C@@H]1NC(=O)[C@H](CC(C)C)N(C)C(=O)C[C@@H](C(=O)N2CCOCC2)N(C)C(=O)[C@H]([C@@H](C)CC)N(C)C(=O)C2(CCCC2)NC(=O)[C@@H]2CCCN2C(=O)[C@H](CCc2ccc(C(F)(F)F)c(Cl)c2)NC(=O)CN(C)C(=O)[C@H](Cc2ccc(C(F)(F)F)cc2)N(CC)C(=O)[C@@H]2CCN2C(=O)[C@H](C)N(C)C1=O [Compound 1312] ([NMeL]I[NMeA][Aze][NEtPhe(4-CF3)][Sar][hPhe(3-Cl-4-CF3)]P[Ac5c][NMeI][NMeD]-Morpholide; lactam N-11),0.74,≤ 20
"CCCOC[C@H]1C(=O)N(C)CC(=O)N[C@@H](CCc2ccc(C(F)(F)F)c(F)c2)C(=O)N2CCC[C@H]2C(=O)NC2(CCCC2)C(=O)N(C)[C@@H](C2CCCC2)C(=O)N(C)[C@H](C(=O)N(C)C)CC(=O)N(C)[C@@H](CC(C)C)C(=O)N[C@@H]([C@@H](C)CC)C(=O)N(C)[C@@H](C)C(=O)N2CC[C@H]2C(=O)N1C [Compound 289] ([NMeL]I[NMeA][Aze][NMeS](Propyl)[Sar][hPhe(3-F,4-CF3)]P[Ac5c][NMeGly(cPent)][NMeD]-NMe2; lactam N-11)",0.3,≤ 20
"CC[C@H](C)[C@@H]1NC(=O)[C@H](CC(C)C)N(C)C(=O)C[C@@H](C)N(C)C(=O)[C@H](C2CCCC2)N(C)C(=O)C2(CCCC2)NC(=O)[C@@H]2CCCN2C(=O)[C@H](CCc2ccc(C(F)(F)F)c(F)c2)NC(=O)CN(C)C(=O)[C@H](Cc2ccc(C)cc2)N(C)C(=O)[C@@H]2CCN2C(=O)[C@H](C)N(C)C1=O [Compound 481] (cyclo([Ac5c][NMeGly(cPent)][NMedβ3hAla][NMeL]I[NMeA][Aze][NMePhe(4-Me)][Sar][hPhe(3-F,4-CF3)]P))",2,≤ 20
"CCO[C@@H]1C[C@H]2C(=O)NC3(CCCC3)C(=O)N(C)[C@@H](C3CCCC3)C(=O)N(C)[C@H](C(=O)N3CCCC3)CC(=O)N(C)[C@@H](CC(C)C)C(=O)N[C@@H]([C@@H](C)CC)C(=O)N(C)CC(=O)N(C)CC(=O)N(C)[C@@H](CC3CCCCC3)C(=O)N(C)CC(=O)N[C@@H](CCc3cc(F)c(C(F)(F)F)c(F)c3)C(=O)N2C1 [Compound 1162] ([NMeL]I[Sar][Sar][NMeCha][Sar][hPhe(3,5-F2-4-CF3)][Hyp](Et)[Ac5c][NMeGly(cPent)][NMeD]-Pyrrolidide; lactam N-11)",0.57,≤ 20
"CC[C@H](C)[C@@H]1NC(=O)[C@H](CC(C)C)N(C)C(=O)C[C@@H](C(=O)N2CCCCC2)N(C)C(=O)[C@H](C(C)C)N(C)C(=O)C2(CCCC2)NC(=O)[C@@H]2CCCN2C(=O)[C@H](CCc2ccc(C(F)(F)F)c(Cl)c2)NC(=O)CN(C)C(=O)[C@H](CC(F)(F)F)N(C)C(=O)[C@@H]2CCN2C(=O)[C@H](C)N(C)C1=O [Compound 1665] ([NMeL]I[NMeA][Aze][NMeAbu(4,4,4-F3)][Sar][hPhe(3-Cl-4-CF3)]P[Ac5c][NMeV][NMeD]-Piperidide; lactam N-11)",19,> 500
CCO[C@@H]1C[C@H]2C(=O)NC3(CCCC3)C(=O)N(C)[C@@H](C3CCCC3)C(=O)N(C)[C@H](C(=O)N3CCOCC3)CC(=O)N(C)[C@@H](CC(C)C)C(=O)N[C@@H]([C@@H](C)CC)C(=O)N(C)[C@@H](C)C(=O)N3CC[C@H]3C(=O)N(C)[C@@H](CC3CCCCC3)C(=O)N(C)CC(=O)N[C@@H](CCc3ccc(C(F)(F)F)c(Cl)c3)C(=O)N2C1 [Compound 1259] ([NMeL]I[NMeA][Aze][NMeCha][Sar][hPhe(3-Cl-4-CF3)][Hyp](Et)[Ac5c][NMeGly(cPent)][NMeD]-Morpholide; lactam N-11),0.49,≤ 20
"CC[C@H](C)[C@@H]1NC(=O)[C@H](CC(C)C)N(C)C(=O)C[C@@H](C(=O)N2CCCCC2)N(C)C(=O)[C@H]([C@@H](C)CC)N(C)C(=O)C2(CCCC2)NC(=O)[C@@H]2CCCN2C(=O)[C@H](CCc2ccc(C(F)(F)F)c(F)c2)NC(=O)CN(C)C(=O)[C@H](Cc2ccc(C)cc2)N(C)C(=O)[C@@H]2CCN2C(=O)[C@H](C)N(C)C1=O [Compound 678] ([NMeL]I[NMeA][Aze][NMePhe(4-Me)][Sar][hPhe(3-F,4-CF3)]P[Ac5c][NMeI][NMeD]-Piperidide; lactam N-11)",1.7,≤ 20
CC[C@H](C)[C@@H]1NC(=O)[C@H](CC(C)C)N(C)C(=O)C[C@@H](C(=O)N2CCCCC2)N(C)C(=O)[C@H](C(C)C)N(C)C(=O)C2(CCCC2)NC(=O)[C@@H]2CCCN2C(=O)[C@H](CCc2ccc(C(F)(F)F)c(Cl)c2)NC(=O)CN(C)C(=O)[C@H](CC2CCCCC2)N(C)C(=O)[C@@H]2CCN2C(=O)[C@H](C)N(CC)C1=O [Compound 443] ([NMeL]I[NEtAla][Aze][NMeCha][Sar][hPhe(3-Cl-4-CF3)]P[Ac5c][NMeV][NMeD]-Piperidide; lactam N-11),30,> 500
"CC[C@H](C)[C@@H]1NC(=O)[C@H](CC(C)C)N(C)C(=O)C[C@@H](C(=O)N2CCOCC2)N(C)C(=O)[C@H](C2CCCC2)N(C)C(=O)C2(CCCC2)NC(=O)[C@@H]2CCCN2C(=O)[C@H](CCc2ccc(C(F)(F)F)c(F)c2)NC(=O)CN(C)C(=O)[C@H](C2CCCC2)N(C)C(=O)[C@@H]2CCN2C(=O)[C@H](C)N(C)C1=O [Compound 871] ([NMeL]I[NMeA][Aze][NMeGly(cPent)][Sar][hPhe(3-F,4-CF3)]P[Ac5c][NMeGly(cPent)][NMeD]-Morpholide; lactam N-11)",0.78,≤ 20
CC[C@H](C)[C@@H]1NC(=O)[C@H](CC(C)C)N(C)C(=O)C[C@@H](C(=O)N2C3CCC2COC3)NC(=O)[C@H](C(C)C)N(C)C(=O)C2(CCCC2)NC(=O)[C@@H]2CCCN2C(=O)[C@H](CCc2ccc(C(F)(F)F)c(Cl)c2)NC(=O)CN(C)C(=O)[C@H](CC2CCCCC2)N(C)C(=O)[C@@H]2CCN2C(=O)[C@H](C)N(C)C1=O [Compound 1214] ([NMeL]I[NMeA][Aze][NMeCha][Sar][hPhe(3-Cl-4-CF3)]P[Ac5c][NMeV]D-{3Oxa8azabicyclo(3.2.1)octane}; lactam N-11),77,> 500
CC[C@H](C)[C@@H]1NC(=O)[C@H](C)N(C)C(=O)C[C@@H](C(=O)N2CCCCC2)N(C)C(=O)[C@H](C(C)C)N(C)C(=O)C2(CCCC2)NC(=O)[C@H](Cc2ccccc2)NC(=O)[C@H](CCc2ccc(C(F)(F)F)c(Cl)c2)NC(=O)CN(C)C(=O)[C@H](CC2CCCCC2)N(C)C(=O)CN(C)C(=O)CN(C)C1=O [Compound 1125] ([NMeA]I[Sar][Sar][NMeCha][Sar][hPhe(3-Cl-4-CF3)]F[Ac5c][NMeV][NMeD]-Piperidide; lactam N-11),2.5,> 500
C=CC[C@@H]1NC(=O)[C@H](CC(C)C)N(C)C(=O)C[C@@H](C(=O)N2CCCCC2)N(C)C(=O)[C@H](C(C)C)N(C)C(=O)C2(CCCC2)NC(=O)[C@@H]2CCCN2C(=O)[C@H](CCc2ccc(C(F)(F)F)c(Cl)c2)NC(=O)CN(C)C(=O)[C@H](CC2CCCCC2)N(C)C(=O)[C@@H]2CCN2C(=O)[C@H](C)N(C)C1=O [Compound 745] ([NMeL][AllylGly][NMeA][Aze][NMeCha][Sar][hPhe(3-Cl-4-CF3)]P[Ac5c][NMeV][NMeD]-Piperidide; lactam N-11),29,> 500
CC[C@H](C)[C@@H]1NC(=O)[C@H](CC(C)C)N(CC)C(=O)C[C@@H](C(=O)N2CCCC2)N(C)C(=O)[C@H]([C@@H](C)CC)N(C)C(=O)C2(CCCC2)NC(=O)[C@@H]2CCCN2C(=O)[C@H](CCc2ccc(C(F)(F)F)c(Cl)c2)NC(=O)CN(C)C(=O)[C@H](Cc2ccc(C(F)(F)F)cc2)N(C)C(=O)[C@@H]2CCN2C(=O)[C@H](C)N(C)C1=O [Compound 1190] ([NEtLeu]I[NMeA][Aze][NMePhe(4-CF3)][Sar][hPhe(3-Cl-4-CF3)]P[Ac5c][NMeI][NMeD]-Pyrrolidide; lactam N-11),0.83,≤ 20
CC[C@H](C)[C@@H]1NC(=O)[C@H](CC(C)C)N(C)C(=O)C[C@@H](C)N(C)C(=O)[C@H](CC(C)C)NC(=O)C(C)(C)N(C)C(=O)[C@H](CC(C)C)NC(=O)[C@H](CCc2ccc(C(F)(F)F)c(Cl)c2)NC(=O)CN(C)C(=O)[C@H](CC2CCCCC2)N(C)C(=O)CN(C)C(=O)CN(C)C1=O [Compound 1076] (cyclo(I[Sar][Sar][NMeCha][Sar][hPhe(3-Cl-4-CF3)]L[NMeAib]L[NMedβ3hAla][NMeL])),19,> 500
